From patent publication US4410716A, “Dibenzo[a,d]cycloheptene derivatives and process for production thereof” (Toa Eiyo Kagaku Kogyo Co. Ltd., priority 1979, dated 1983) come the findings set out here.

The term ED50 denotes the midpoint of the dose-response relation.

“Also recorded” adds a separate entry of the source. Like-named read-outs stand apart in the source and are kept apart here.

One data set deals with gastric wall. Put plainly: in vivo. Particulars: rat, in vivo, po. How it is done:
(§1) The anti-inflammatory activity, analgesic activity and ulcerogenic activity of the novel dibenzo[a,d]cycloheptene derivatives of this invention were tested by the following methods.
(§2) Sixteen hours later, the rats were sacrificed under ether anesthesia.
(§3) *Calculated by the Adami's method.
(§4) **Calculated by the LitchfieldWilcoxon's method. The parenthesized values
(§5) show 95% confidence limits.

For data set [1], the system named is edema (carrageenin, hind paw). Nature of the data set: Anti-inflammatory activity: carrageenin hind paw edema in rats, oral administration. Type of data set: in vivo, male Donryu rats. As to conditions: for inhibition in vivo at 25 mg/kg / inhibition in vivo at 100 mg/kg / ED40 / inhibition in vivo at 5 mg/kg / inhibition in vivo at 20 mg/kg / inhibition in vivo at 50 mg/kg / inhibition in vivo at 1 mg/kg / inhibition in vivo at 10 mg/kg: Rattus norvegicus; for inhibition in vivo at 25 mg/kg: 25 mg/kg oral; for inhibition in vivo at 25 mg/kg / inhibition in vivo at 100 mg/kg / inhibition in vivo at 5 mg/kg / inhibition in vivo at 20 mg/kg / inhibition in vivo at 50 mg/kg / inhibition in vivo at 1 mg/kg / inhibition in vivo at 10 mg/kg: read-out: Percent edema inhibition; for inhibition in vivo at 100 mg/kg: 100 mg/kg oral; for ED40: dose causing 40% inhibition, dose-response line, read-out: ED40 value; for ED40 / anti-inflammatory activity (in words): oral; for anti-inflammatory activity (in words): carrageenin edema, rat; for inhibition in vivo at 5 mg/kg: 5 mg/kg oral; for inhibition in vivo at 20 mg/kg: 20 mg/kg oral; for inhibition in vivo at 50 mg/kg: 50 mg/kg oral; for inhibition in vivo at 1 mg/kg: 1 mg/kg oral; for inhibition in vivo at 10 mg/kg: 10 mg/kg oral. As to the method:
as §1
Each of test compounds was orally administered to groups of male Donryu rats weighing 130 to 150 g (8 to 10 rats per group), and one hour later, 0.1 ml of a 1% carrageenin solution was injected subcutaneously into the hind paw of each rat. After injection of carrageenin, the volume of the paw was measured at predetermined periods, and the percent inhibition against a control group was calculated.
(In general: In the carrageenan paw model, swelling and tenderness develop within hours.)

Another data set can be described thus: in vivo. Particulars: rat, in vivo, po. As to the method:
as §1, §2, §3, §4, §5

For data set [2], the system named is writhing syndromes (acetic acid). Put plainly: Analgesic activity: acetic acid writhing in mice. Format: in vivo, male ICR mice. As to the method: as §1
Using male ICR mice weighing 25 to 30 g (10 mice per group), there was measured the number of writhing syndromes induced when a 1% solution of acetic acid was intraperitoneally injected at a dose of 10 ml/kg. The percent inhibition against a control group was calculated.
In general terms: An intraperitoneal irritant provokes the stretching counted in writhing tests.

As to `O=C(O)Cc1ccc2c(c1)C(=O)Cc1ccccc1C2` [Ia, 10,11-dihydro-11-oxo-5H-dibenzo[a,d]cycloheptene-2-acetic acid], the “ulcerogenic activity (in words)” value in the data set with gastric wall was “much weaker than that of indomethacin”. Moreover, the inhibition in vivo at 25 mg/kg in data set [1] (1 hour after carrageenin) amounted to 28.2%; in data set [1] (2 hours after carrageenin), 41.8%; in data set [1] (3 hours after carrageenin) it was 44.5%; in data set [1] (4 hours after carrageenin), 41%. The inhibition in vivo at 100 mg/kg in data set [1] (1 hour after carrageenin) is 33%; in data set [1] (2 hours after carrageenin), 50%; in data set [1] (3 hours after carrageenin) it was 53.7%; in data set [1] (4 hours after carrageenin), 52.2%. Besides, the ED40 in data set [1] (3 hours after carrageenin) is 13 mg/kg. In data set [1], the “anti-inflammatory activity (in words)” value is “excellent anti-inflammatory activity; also recorded: evidently show anti-inflammatory activity although their activity is weaker than that of indomethacin”.
`O=C(O)Cc1ccc2c(c1)C(=O)Cc1cc(F)ccc1C2` [Ib, 8-fluoro-10,11-dihydro-11-oxo-5H-dibenzo[a,d]cycloheptene-2-acetic acid]: in the data set with gastric wall, the “ulcerogenic activity (in words)” value is “much weaker than that of indomethacin”. For the same compound, the inhibition in vivo at 25 mg/kg was found to be 32.4% in data set [1] (1 hour after carrageenin), 45.3% in data set [1] (2 hours after carrageenin), 43.4% in data set [1] (3 hours after carrageenin) and 41.9% in data set [1] (4 hours after carrageenin). Further, the inhibition in vivo at 100 mg/kg in data set [1] (1 hour after carrageenin) is 44.1%; in data set [1] (2 hours after carrageenin), 57.9%; in data set [1] (3 hours after carrageenin) it was 52.6%; in data set [1] (4 hours after carrageenin) it was 53%. Moreover, the ED40 in data set [1] (3 hours after carrageenin) is 15 mg/kg. Further, the “anti-inflammatory activity (in words)” value in data set [1] is “excellent anti-inflammatory activity; also recorded: evidently show anti-inflammatory activity although their activity is weaker than that of indomethacin”.
Take `O=C(O)Cc1ccc2c(c1)Cc1ccccc1CC2=O` [Ic, 10,11-dihydro-11-oxo-5H-dibenzo[a,d]cycloheptene-3-acetic acid]: the inhibition in vivo at 25 mg/kg stood at 32.8% in data set [1] (1 hour after carrageenin), 29.4% in data set [1] (2 hours after carrageenin), 25.5% in data set [1] (3 hours after carrageenin) and 24% in data set [1] (4 hours after carrageenin). The inhibition in vivo at 100 mg/kg in data set [1] (1 hour after carrageenin) came out at 51.4%; in data set [1] (2 hours after carrageenin) it was 44.7%; in data set [1] (3 hours after carrageenin) it was 40.7%; in data set [1] (4 hours after carrageenin), 39.3%. Besides, the ED40 in data set [1] (3 hours after carrageenin) is 94 mg/kg. In addition, in data set [1], the “anti-inflammatory activity (in words)” value is reported as “excellent anti-inflammatory activity; also recorded: evidently show anti-inflammatory activity although their activity is weaker than that of indomethacin”.
As for `O=C(O)Cc1ccc2c(c1)CC(=O)c1ccccc1C2` [Id, 10,11-dihydro-10-oxo-5H-dibenzo[a,d]cycloheptene-2-acetic acid], the inhibition in vivo at 25 mg/kg in data set [1] (1 hour after carrageenin) worked out at 36%; in data set [1] (2 hours after carrageenin), 36%; in data set [1] (3 hours after carrageenin), 21.4%; in data set [1] (4 hours after carrageenin), 18.4%. Moreover, the inhibition in vivo at 100 mg/kg worked out at 44.6% in data set [1] (1 hour after carrageenin), 39% in data set [1] (2 hours after carrageenin), 28.1% in data set [1] (3 hours after carrageenin) and 21.4% in data set [1] (4 hours after carrageenin).
`O=C(O)Cc1ccc2c(c1)CC(=O)c1cc(Cl)ccc1C2` [Ie, 8-chloro-10,11-dihydro-10-oxo-5H-dibenzo[a,d]cycloheptene-2-acetic acid]: the inhibition in vivo at 25 mg/kg in data set [1] (1 hour after carrageenin) came to 4.5%; in data set [1] (2 hours after carrageenin), 8.6%; in data set [1] (3 hours after carrageenin), 3%; in data set [1] (4 hours after carrageenin) it was 2.3%. In addition, the inhibition in vivo at 100 mg/kg in data set [1] (1 hour after carrageenin) was -0.7%; in data set [1] (2 hours after carrageenin), 1.3%; in data set [1] (3 hours after carrageenin), -4.2%; in data set [1] (4 hours after carrageenin), -1.8%.
`O=C(O)Cc1ccc2c(c1)Cc1ccccc1C(=O)C2` [If, 10,11-dihydro-10-oxo-5H-dibenzo[a,d]cycloheptene-3-acetic acid]: the inhibition in vivo at 25 mg/kg in data set [1] (1 hour after carrageenin) was -22.6%; in data set [1] (2 hours after carrageenin), -16.8%; in data set [1] (3 hours after carrageenin), -12.3%; in data set [1] (4 hours after carrageenin) it was -8.7%. The inhibition in vivo at 100 mg/kg in data set [1] (1 hour after carrageenin) is -23.5%; in data set [1] (2 hours after carrageenin) it was -21.4%; in data set [1] (3 hours after carrageenin), -9.1%; in data set [1] (4 hours after carrageenin) it was -5.5%.
Consider `COC1=Cc2ccccc2Cc2ccc(CC(=O)O)cc21` [Ig, 11-methoxy-5H-dibenzo[a,d]cycloheptene-2-acetic acid], for which the inhibition in vivo at 100 mg/kg in data set [1] (1 hour after carrageenin) was determined as 25.5%; in data set [1] (2 hours after carrageenin), 40.6%; in data set [1] (3 hours after carrageenin) it was 42.6%; in data set [1] (4 hours after carrageenin), 37.1%.
`COC1=Cc2ccccc2Cc2ccc(C(C)C(=O)O)cc21` (stereo not drawn) [Ih, 2-(11-methoxy-5H-dibenzo[a,d]cyclohepten-2-yl)propionic acid]: the inhibition in vivo at 5 mg/kg was determined as 18.4% in data set [1] (1 hour after carrageenin), 24.7% in data set [1] (2 hours after carrageenin), 12% in data set [1] (3 hours after carrageenin) and 12.6% in data set [1] (4 hours after carrageenin). The inhibition in vivo at 20 mg/kg in data set [1] (1 hour after carrageenin) came out at 28.1%; in data set [1] (2 hours after carrageenin) it was 22.9%; in data set [1] (3 hours after carrageenin) it was 26.8%; in data set [1] (4 hours after carrageenin) it was 26.8%. In addition, the inhibition in vivo at 50 mg/kg in data set [1] (1 hour after carrageenin) was found to be 35.6%; in data set [1] (2 hours after carrageenin), 32.9%; in data set [1] (3 hours after carrageenin), 35.4%; in data set [1] (4 hours after carrageenin), 35.7%. In addition, the ED40 in data set [1] (3 hours after carrageenin) stood at 77 mg/kg. In addition, the “anti-inflammatory activity (in words)” value in data set [1] was “excellent anti-inflammatory activity; also recorded: evidently show anti-inflammatory activity although their activity is weaker than that of indomethacin”.
As for `CC(C(=O)O)c1ccc2c(c1)C(=O)Cc1ccccc1C2` (stereo not drawn) [compound Ii, 2-(10,11-dihydro-11-oxo-5H-dibenzo[a,d]cyclohepten-2-yl)propionic acid], in the data set “in vivo”, the TD50 at 16 h was found to be 15 mg/kg and the selectivity ratio amounted to 7.9. In data set [2] (10.0 mg/kg), the “Inhibition (writhing)” value is recorded as 14.0% and the “Number of writhing syndromes (Mean ± SE)” value turned out to be 19.7 ± 1.77. Further, in data set [2] (20.0 mg/kg), the “Inhibition (writhing)” value was 33.6% and the “Number of writhing syndromes (Mean ± SE)” value is recorded as 15.2 ± 1.28. Moreover, in data set [2] (40.0 mg/kg), the “Inhibition (writhing)” value is recorded as 45.4% and the “Number of writhing syndromes (Mean ± SE)” value came to 12.5 ± 1.65. For the same compound, in data set [2] (80.0 mg/kg), the “Inhibition (writhing)” value is given as 57.6% and the “Number of writhing syndromes (Mean ± SE)” value stood at 9.7 ± 1.93. In data set [2] (Mus musculus, po, dose causing 50% inhibition of writhing, dose-response line, read-out: ED50 value), the ED50 came to 52 mg/kg. Moreover, in data set [2] (writhing, mouse), the “ED50 value relative to that of indomethacin” value is listed as “ten times”, the “analgesic activity (in words)” value is reported as “weak analgesic activity” and the “analgesic activity relative to indomethacin” value was “one-tenth of that of indomethacin”. Moreover, in data set [1] (1 hour after carrageenin), the inhibition in vivo at 1 mg/kg was determined as 34.4%, the inhibition in vivo at 5 mg/kg was 35.8% and the inhibition in vivo at 10 mg/kg worked out at 50%. In data set [1] (2 hours after carrageenin), the inhibition in vivo at 1 mg/kg is 30.6%, the inhibition in vivo at 5 mg/kg amounted to 54% and the inhibition in vivo at 10 mg/kg was 55%. Also, in data set [1] (3 hours after carrageenin), the inhibition in vivo at 1 mg/kg was found to be 32.4%, the inhibition in vivo at 5 mg/kg turned out to be 51.7%, the inhibition in vivo at 10 mg/kg came to 54.6% and the ED40 was determined as 1.9 mg/kg. Also, in data set [1] (4 hours after carrageenin), the inhibition in vivo at 1 mg/kg came out at 32.4%, the inhibition in vivo at 5 mg/kg was determined as 50.9% and the inhibition in vivo at 10 mg/kg was determined as 54.6%. Further, the “anti-inflammatory activity (in words)” value in data set [1] is “excellent anti-inflammatory activity; also recorded: stronger than that of indomethacin; also recorded: very potent anti-inflammatory activity”.
